Experimental data as given in US9288991B2 (Rohm and Haas Company, priority 2012, dated 2016).

Legend:
[1] = system: Chlorella sp. ATCC 7516; experiment: Algal efficacy testing of dry paint film (modified ASTM 5589), Chlorella; assay type: cell-based
Experimental: (§1) These paints were then diluted with an antimicrobial free acrylic/silicone based paint and mixed to prepare targeted concentrations of antimicrobial compounds for the testing. The total biocides concentrations tested were 125, 250, 500, 1000, 2000 and 5000 ppm. After biocides addition or dilution, the paints were mixed 90 seconds with the horse power shaker (AXEL 75M3372/Agitateur SO-10MI) until uniformity was achieved. Paints containing different antimicrobial compounds at the same levels were mixed together in order to obtain the desired ratio of antimicrobial compounds. After one day, the paints were applied to Schleicher & Schuell filter paper at 280 μm wet film thickness and dried for 3 days at room temperature avoiding direct exposure to sunlight. Square discs (1.6 cm×1.6 cm) were cut out from each panel and were used as the substrate for algal efficacy tests. This sample size allowed for an agar border when the sample disc was placed into the well of the test plate.
(§2) Algal efficacy was tested according to modified ASTM 5589 which is a standard accelerated test method for determining resistance of various coatings (including paints) to algal defacement. To accommodate for high-throughput screening, this method was scaled down from petri dishes to 6-well plates. Bold Modified Basal Freshwater Nutrient Solution was used as growth medium. A single coated filter paper coupon was placed with a pair of sterile forceps at the center of the agar plug (on top) with the painted surface facing upwards. Algal inoculums were prepared by mixing equal concentrations (1×10^6 cfu/ml) and equal volumes of exponentially growing algae cultures.
(§3) Each well that contains a tested coupon was inoculated with 1750 μl of algal suspensions (1×10^6 cfu/ml) making sure that the whole surface (paint film as well as the agar surrounding it) was evenly covered. […]
(§4) At the end of the three week incubation period, the samples were scored for percent inhibition regarding visible algal growth compared to the blank sample (0% inhibition).
(§5) The SI is calculated based on F. C. […]

[2] = system: Stichococcus bacillaris SAG 379-1a / CCAP 379/1a; experiment: Algal efficacy testing of dry paint film (modified ASTM 5589), Stichococcus; assay type: cell-based
Experimental: as §1, §2, §3, §4, §5

[3] = total active in paint, 3 weeks incubation, maximum tested conc given if pass not reached

O=c1[nH]c2c(c(=O)n1C1CCCCC1)CCC2 [Lenacil, 3-cyclohexyl-1,5,6,7-tetrahydrocyclopentapyrimidine-2,4(3H)-dione]
inhibition at 5000 ppm ([1]; 504 h, total conc 5000 ppm, 3 weeks, visible algal growth vs blank): 30%
inhibition at 5000 ppm ([2]; Stichococcus bacillaris, 504 h, total conc 5000 ppm, 3 weeks, visible algal growth vs blank): 70%

[O-][n+]1ccccc1[S][Zn][S]c1cccc[n+]1[O-] [ZnPT, bis(2-pyridylthio)zinc 1,1′-dioxide]
Total conc (minimum inhibitory concentration chosen for SI; pass level ≧75% inhibition) [1, 3]: 1000 ppm
% inhibition ([1]; total conc 1000 ppm, 3 weeks, visible algal growth vs blank): 100%
Total conc (minimum inhibitory concentration chosen for SI; pass level ≧75% inhibition) [2, 3]: 500 ppm
% inhibition ([2]; total conc 500 ppm, 3 weeks, visible algal growth vs blank): 75%
